Like-named read-outs stand apart in the source and are kept apart here. Residues, ends and D or L forms follow the SMILES beside them.
Tests used:
SARS-CoV-2 [1] = assay: microbe, parasite or virus in culture; type: cell-based
TMPRSS2 [2] = target: T1, TMPRSS2 (Homo sapiens, UniProt O15393); conditions: HeLa-ACE2 cells, 120 μM
Protocol: HeLa-ACE2 cells were transiently transfected with empty vector (V) or increasing cDNA ratios of V5-tagged WT spike protein to TMPRSS2 (spike-V5:TMPRSS2) as indicated and 24 h later incubated for an additional 24 h in serum-free media containing 120 μM Camostat (+) or control DMSO (−) (FIG. 12A). Immunoblot of the 24 h conditioned media (concentrated 10-fold) was first probed for S1 and S1′ using an antibody against S1-subunit (GTX135356), stripped and next probed for sACE2 (ab108252) and mature TMPRSS2m (14437-1-AP) (upper panel). Cell lysates were immunoblotted for spike protein (V5-mAb), ACE2 (ab108252) and β-Actin (lower panel). HeLa-ACE2 cells were transiently transfected for 48 h with empty vector (V), TMPRSS2, and V5-tagged spike protein (S) alone or in combination with TMPRSS2 (S+TMPRSS2) in a ratio of 1:0.7 (FIG. 12B). For each condition, 1 ml of 24h serum free conditioned media was immunoprecipitated with 2 μg goat polyclonal ACE2 antibody (AF933, R&D) and 60 μl TrueBlot anti-goat Ig IP beads (00-8844-25; Rockland) and analyzed by western blot first for S1 and S1′ (GTX135356) and next for sACE2 (rabbit MAB; ab108252) (upper right panels). For reference, 50% of the media before immunoprecipitation (concentrated 10-fold) (input) was similarly analyzed (upper left panels). Immunoblots of the cell lysates (spike protein: V5-mAb) are also shown (lower panels).
To confirm that S2a, and S2b are generated by TMPRSS2 activity in the ER, HeLa-ACE2 cells were incubated with 120 μM Camostat, known to inhibit TMPRSS2.

[3] = test system: endogenous furin-like enzymes; type: cell-based, Chinese hamster; conditions: BHK21 cells; Compound 192/219 at 0.3, 1 or 10 μM, RVKR at 50 μM; 24 h
[4] = test system: endogenous furin-like enzymes; type: cell-based, African green monkey; conditions: VeroE6 cells; Compound 192/219 at 0.3, 1 or 10 μM, RVKR at 50 μM; 24 h
[5] = test system: endogenous furin-like enzymes; type: cell-based, human; conditions: A549 cells; Compound 192/219 at 0.3, 1 or 10 μM, RVKR at 50 μM; 24 h
PACE4 (PCSK6) = target: T2, PACE4 (PCSK6) (Homo sapiens, UniProt P29122); assay: Biochemical PC-inhibition assay, substrate FAM-[…]-TAMRA
T2 construct: PACE4 (PCSK6; 150-693-Tev-Flag-6His); Tev site (C); Flag (C); 6His (C); made in house; host or cells: BacMam transduced CHO cells
T2 sequence (P29122 150-693): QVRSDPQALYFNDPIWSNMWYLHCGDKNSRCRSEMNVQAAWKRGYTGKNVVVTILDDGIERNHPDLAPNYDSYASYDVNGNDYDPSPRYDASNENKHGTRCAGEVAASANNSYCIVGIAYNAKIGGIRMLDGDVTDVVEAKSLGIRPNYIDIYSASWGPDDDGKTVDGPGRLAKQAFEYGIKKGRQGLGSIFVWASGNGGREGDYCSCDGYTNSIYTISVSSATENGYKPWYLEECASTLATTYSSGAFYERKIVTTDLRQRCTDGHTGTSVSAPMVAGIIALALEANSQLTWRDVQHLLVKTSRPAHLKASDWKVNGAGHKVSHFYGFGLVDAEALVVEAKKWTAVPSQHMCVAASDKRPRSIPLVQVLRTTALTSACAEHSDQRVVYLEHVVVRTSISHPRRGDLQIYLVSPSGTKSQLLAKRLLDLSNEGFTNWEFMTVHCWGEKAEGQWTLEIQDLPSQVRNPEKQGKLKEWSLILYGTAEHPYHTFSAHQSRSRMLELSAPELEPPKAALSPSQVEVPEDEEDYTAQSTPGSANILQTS
Protocol: (§1) Biochemical assay: The proprotein convertases furin (108-574-Tev-Flag-6His), PC5A (PCSK5; […]-Tev-Flag-6His), PACE4 (PCSK6; 150-693-Tev-Flag-6His), and PC7 (PCSK7; 142-634-Tev-Flag-6His) enzymes were purified from BacMam transduced CHO cells. […] 0.05 μl of each concentration was transferred to the corresponding well of an assay plate, and then 5 μl of enzyme (furin, PCSK5, PCSK6, and PCSK7) in assay buffer (100 mM HEPES pH 7.5, 1 mM CaCl2) and 0.005% Triton X-100) was added using a Multidrop Combi (Thermo) to the compound plates to give a final protein concentration of 0.02, 0.5, 2.5, and 1.0 nM respectively. The plates were mixed by inversion, and following a 30 min preincubation of enzyme with compound at room temperature (˜22° C.), the substrate FAM-[…] -TAMRA (AnaSpec #808143, 5 μl of a 1, 0.25, 0.20, and 0.5 μM solution in assay buffer for furin, PCSK5, PCSK6, and PCSK7 respectively) was added using a Multidrop Combi to the entire assay plate. The plates were centrifuged at 500×g for 1 minute and incubated at room temperature for two hours. Enzyme inhibition was then quantified using an Envision instrument (PerkinElmer). Data were normalized to maximal inhibition determined by 1 μM Decanoyl-Arg-Val-Lys-Arg-Chloromethylketone (Calbiochem #344930). Golgi imaging assay: This assay uses an image-based platform to evaluate the intracellular activity of furin inhibitors. Reactions were performed in black 384-well, tissue culture-treated, clear bottom plates (Greiner). Compounds under analysis were dissolved in DMSO (1.0 mM) and serially diluted 1 to 3 with DMSO through eleven dilutions. This creates a final compound concentration range from 0.00017 to 10 μM, and 0.1 μL of each concentration was transferred to the corresponding well of the assay plate.

PC5A (PCSK5) = target: T3, PC5A (PCSK5) (Homo sapiens, UniProt Q92824); assay: as above
T3 construct: fused on or other part: C-terminal Tev site, Flag tag and 6His tag
T3 sequence (Q92824 115-601): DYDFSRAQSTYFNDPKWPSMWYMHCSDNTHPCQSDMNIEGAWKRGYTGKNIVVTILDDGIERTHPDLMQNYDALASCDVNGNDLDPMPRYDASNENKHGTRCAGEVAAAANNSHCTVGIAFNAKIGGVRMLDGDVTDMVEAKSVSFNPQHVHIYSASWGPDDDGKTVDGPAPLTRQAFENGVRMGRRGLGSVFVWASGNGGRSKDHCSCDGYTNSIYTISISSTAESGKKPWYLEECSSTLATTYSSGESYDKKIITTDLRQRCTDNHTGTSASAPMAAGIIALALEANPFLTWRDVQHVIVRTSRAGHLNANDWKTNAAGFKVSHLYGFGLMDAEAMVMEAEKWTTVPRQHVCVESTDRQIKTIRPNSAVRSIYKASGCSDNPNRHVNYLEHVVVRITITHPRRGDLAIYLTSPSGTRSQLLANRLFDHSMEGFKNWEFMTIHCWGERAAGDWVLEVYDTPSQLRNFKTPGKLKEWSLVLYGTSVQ
Protocol: as §1

PC7 (PCSK7) = target: T4, PC7 (PCSK7) (Homo sapiens, UniProt Q16549); assay: as above
T4 construct: PC7 (PCSK7; 142-634-Tev-Flag-6His); Tev site (C); Flag (C); 6His (C); made in house; host or cells: BacMam transduced CHO cells
T4 sequence (Q16549 142-634): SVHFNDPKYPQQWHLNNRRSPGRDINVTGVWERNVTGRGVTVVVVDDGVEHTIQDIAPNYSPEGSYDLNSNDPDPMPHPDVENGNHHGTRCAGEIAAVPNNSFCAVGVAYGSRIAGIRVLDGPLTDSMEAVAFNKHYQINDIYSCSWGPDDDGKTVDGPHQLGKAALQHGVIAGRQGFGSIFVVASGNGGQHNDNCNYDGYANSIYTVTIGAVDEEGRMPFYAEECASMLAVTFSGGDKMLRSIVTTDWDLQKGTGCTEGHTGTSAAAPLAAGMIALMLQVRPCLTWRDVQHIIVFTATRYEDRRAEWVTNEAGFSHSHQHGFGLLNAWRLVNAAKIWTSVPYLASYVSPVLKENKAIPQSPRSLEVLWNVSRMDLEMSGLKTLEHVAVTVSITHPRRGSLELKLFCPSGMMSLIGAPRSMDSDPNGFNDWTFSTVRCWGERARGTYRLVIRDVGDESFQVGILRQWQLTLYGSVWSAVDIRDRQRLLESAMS
Protocol: as §1

[6] = test system: endogenous furin-like enzymes; type: cell-based; conditions: HeLa-ACE2 cells
[7] = test system: HeLa cells co-expressing the S-protein with ACE2; assay: Immunocytochemistry of HeLa cells co-expressing S-protein and ACE2 (syncytia, localization); type: cell-based; conditions: 1 μM
Protocol: Immunocytochemical analyses of HeLa cells co-expressing the S-protein or μS1/S2 with ACE2 in the absence or presence of 1 μM Compound 192 was also investigated under cell-permeabilization (P; V5 and ACE2 antibodies) and non-permeabilization (NP; S2 and ACE2 antibodies) conditions (FIGS. 14, 15). In the absence of Compound 192, the S-protein and ACE2 co-localized abundantly at the cell surface (FIG. 14-a). HeLa cells expressing both S-protein and ACE2 formed many syncytia, associated with reduced cell surface expression of the S-protein, and an even greater reduction of ACE2 (FIG. 14-b).
Cell culture and transfection were performed on glass coverslips. Cells were washed twice with PBS and fixed with fresh 4% paraformaldehyde for 10 min at room temperature. Following washes, cells were either non-permeabilized or permeabilized with 0.2% Triton X-100 in PBS containing 2% BSA for 5 min, washed, and then blocking was performed with PBS containing 2% BSA for 1 h. Cells were incubated with primary antibodies overnight at 4° C. using an antibody against V5 (mouse monoclonal R960-25; 1:1000; Invitrogen), Spike (mouse monoclonal GTX632604; 1:500; GeneTex) and ACE2 (goat polyclonal AF933; 1:500; RnDsystems). Following wash, corresponding species-specific Alexa-Fluor (488 or 555)-tagged antibodies (Molecular Probes) were incubated for 1 h at room temperature. […]

[8] = test system: SARS-CoV-2 Spike ACE2-dependent cell-to-cell fusion; assay: microbe, parasite or virus in culture; type: cell-based; conditions: Severe acute respiratory syndrome coronavirus 2; 300 nM
[9] = test system: HIV particles pseudotyped with SARS-CoV-2 S; type: cell-based
SARS-CoV-2 [10] = type: cell-based
furin [11] = target: T5, furin (Homo sapiens, UniProt P09958); assay: biochemical
Target sequence in this assay (P09958 108-794): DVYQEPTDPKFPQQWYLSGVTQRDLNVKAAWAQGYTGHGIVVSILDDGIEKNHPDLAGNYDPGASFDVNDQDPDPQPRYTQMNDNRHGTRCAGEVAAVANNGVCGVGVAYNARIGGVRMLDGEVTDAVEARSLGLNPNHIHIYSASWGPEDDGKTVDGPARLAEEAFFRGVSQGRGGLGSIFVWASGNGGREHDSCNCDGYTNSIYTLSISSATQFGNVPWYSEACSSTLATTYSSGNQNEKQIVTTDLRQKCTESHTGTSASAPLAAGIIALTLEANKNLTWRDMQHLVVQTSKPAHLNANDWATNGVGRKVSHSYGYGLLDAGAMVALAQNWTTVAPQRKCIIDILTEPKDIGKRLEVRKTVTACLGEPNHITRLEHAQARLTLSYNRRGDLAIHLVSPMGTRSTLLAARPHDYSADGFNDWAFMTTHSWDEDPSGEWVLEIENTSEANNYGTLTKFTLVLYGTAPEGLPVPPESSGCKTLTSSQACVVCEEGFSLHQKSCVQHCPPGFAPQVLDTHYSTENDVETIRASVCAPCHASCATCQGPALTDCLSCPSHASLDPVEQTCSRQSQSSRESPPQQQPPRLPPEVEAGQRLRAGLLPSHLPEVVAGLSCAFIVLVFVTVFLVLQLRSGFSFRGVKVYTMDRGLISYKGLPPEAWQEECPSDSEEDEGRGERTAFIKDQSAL
Protocol: Furin and TRMPSS2 fluorogenic assays: Recombinant furin was purchased from BioLegend (#719406), TRMPSS2 from Cusabio and the DABCYLGlu-EDANS labelled peptides encompassing the different cleavage sites (Supplementary Table 1) were purchased from Genscript. Reactions were performed at room temperature in black 384-well polystyrene low volume plates (CELLSTAR-Greiner Bio-One #784476) at a final volume of 15 μL. […] Cleavage of the synthetic peptides was quantitated by determining the increase of EDANS (493 nM) fluorescence following release of the DABCYL quencher, which is excited at 335 nM using a Safire 2 Tecan fluorimeter. The fluorescence was followed during 90 min, and the enzymatic activity was deduced by measurement of the increase of fluorescence during the linear phase of the reaction. Each reaction was performed in triplicate and the standard deviation was calculated using Excel-ecart type function

TMPRSS2 [12] = target: T1, TMPRSS2; type: cell-based; parameters: expressed in transfected cells; host or cells: HeLa; conditions: HeLa cells
furin [13] = target: T5, furin; assay: Biochemical PC-inhibition assay, substrate FAM-[…]-TAMRA; parameters: furin (108-574-Tev-Flag-6His); Tev site (C); Flag (C); 6His (C); made in house; host or cells: BacMam transduced CHO cells
Target sequence in this assay (P09958 108-574): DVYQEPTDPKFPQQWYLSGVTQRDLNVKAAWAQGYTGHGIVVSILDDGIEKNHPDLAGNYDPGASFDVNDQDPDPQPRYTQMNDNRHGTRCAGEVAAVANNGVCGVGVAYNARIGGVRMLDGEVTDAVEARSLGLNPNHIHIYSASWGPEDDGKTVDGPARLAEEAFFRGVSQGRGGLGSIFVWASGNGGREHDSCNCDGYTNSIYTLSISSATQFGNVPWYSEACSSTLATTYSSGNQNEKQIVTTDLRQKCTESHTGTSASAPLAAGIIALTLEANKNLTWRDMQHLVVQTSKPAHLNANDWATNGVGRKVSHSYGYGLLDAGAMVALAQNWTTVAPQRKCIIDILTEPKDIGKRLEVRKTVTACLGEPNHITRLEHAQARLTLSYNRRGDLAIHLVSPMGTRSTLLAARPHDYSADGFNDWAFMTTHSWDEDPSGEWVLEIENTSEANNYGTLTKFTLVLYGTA
Protocol: Biochemical assay: The proprotein convertases furin (108-574-Tev-Flag-6His), PC5A (PCSK5; 115-63-Tev-Flag-6His), PACE4 (PCSK6; 150-693-Tev-Flag-6His), and PC7 (PCSK7; 142-634-Tev-Flag-6His) enzymes were purified from BacMam transduced CHO cells. Reactions were performed in black 384-well polystyrene low volume plates (Greiner) at a final volume of 10 μL. […] The plates were centrifuged at 500×g for 1 minute and incubated at room temperature for two hours. Enzyme inhibition was then quantified using an Envision instrument (PerkinElmer). Data were normalized to maximal inhibition determined by 1 μM Decanoyl-Arg-Val-Lys-Arg-Chloromethylketone (Calbiochem #344930).

endogenous furin = target: T6, endogenous furin (Homo sapiens, UniProt P09958); assay: Cell-based Golgi imaging assay of U2OS cells (BMP10-mimic cleavage)
T6 construct: the endogenous protease cleaves GFP from its N-acetylgalactosaminyltransferase-2 Golgi tether; endogenous in cells; host or cells: U2OS
T6 sequence (P09958 108-794): as the sequence (P09958 108-794) above
Protocol: Biochemical assay: The proprotein convertases furin (108-574-Tev-Flag-6His), PC5A (PCSK5; […]-Tev-Flag-6His), PACE4 (PCSK6; 150-693-Tev-Flag-6His), and PC7 (PCSK7; 142-634-Tev-Flag-6His) enzymes were purified from BacMam transduced CHO cells. […] 0.05 μl of each concentration was transferred to the corresponding well of an assay plate, and then 5 μl of enzyme (furin, PCSK5, PCSK6, and PCSK7) in assay buffer (100 mM HEPES pH 7.5, 1 mM CaCl2) and 0.005% Triton X-100) was added using a Multidrop Combi (Thermo) to the compound plates to give a final protein concentration of 0.02, 0.5, 2.5, and 1.0 nM respectively. […] Enzyme inhibition was then quantified using an Envision instrument (PerkinElmer). Data were normalized to maximal inhibition determined by 1 μM Decanoyl-Arg-Val-Lys-Arg-Chloromethylketone (Calbiochem #344930). […]
Cellular assay: Analyses were initiated by the addition of U2OS cells simultaneously transduced with a BacMam-delivered construct containing a Golgi-targeting sequence followed by a 12-amino acid furin/PCSK cleavage site from Bone Morphogenic Protein 10 (BMP10) and then GFP at the C terminus. […] In the absence of a furin/PCSK inhibitor, the endogenous protease cleaves GFP from its N-acetylgalactosaminyltransferase-2 Golgi tether, releasing GFP into the Golgi lumen where fluorescence is diluted below the threshold of assay sensitivity. […]

T1 sequence (O15393 whole entry): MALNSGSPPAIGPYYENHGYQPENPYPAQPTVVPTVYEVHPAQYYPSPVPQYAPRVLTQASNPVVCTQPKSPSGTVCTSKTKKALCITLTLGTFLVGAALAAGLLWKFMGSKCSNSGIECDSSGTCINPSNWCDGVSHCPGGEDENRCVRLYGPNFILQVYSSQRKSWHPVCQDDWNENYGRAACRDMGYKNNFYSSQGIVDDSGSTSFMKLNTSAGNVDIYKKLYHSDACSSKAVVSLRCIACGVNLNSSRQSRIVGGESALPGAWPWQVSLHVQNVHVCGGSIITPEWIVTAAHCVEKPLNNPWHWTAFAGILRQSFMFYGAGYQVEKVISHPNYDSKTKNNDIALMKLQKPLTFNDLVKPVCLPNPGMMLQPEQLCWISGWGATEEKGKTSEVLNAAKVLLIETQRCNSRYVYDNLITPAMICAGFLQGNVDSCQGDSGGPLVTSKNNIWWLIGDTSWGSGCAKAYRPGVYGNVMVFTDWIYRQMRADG

Row | SMILES | Viral replication, inhibitors individually (SARS-CoV-2 [1]) | Inhibition of processing of pro-(S) protein to active (S)-protein [3] | Inhibition of processing of pro-(S) protein to active (S)-protein [4] | Inhibition of processing of pro-(S) protein to active (S)-protein [5] | IC50 (PACE4 (PCSK6)) [nM] | IC50 (PC5A (PCSK5)) [nM] | IC50 (PC7 (PCSK7)) [nM] | S1/S2 and S2′ processing by endogenous furin-like enzymes [6] | inhibition at 0.3 µM [8] [%] | Viral entry in Calu-3 of pseudovirions packaged in presence of inhibitor [9] | Antiviral effects and selectivity index relative to Compound 93 (SARS-CoV-2 [1]) | SARS-CoV-2 infection in Calu-3 cells (virus titers) (SARS-CoV-2 [1]) | Viral titers at 12, 24 and 48h post-infection (SARS-CoV-2 [1]) | Virus production in infected Vero E6 cells (SARS-CoV-2 [10]) | Generation of S2a and S2b by TMPRSS2 (TMPRSS2 [12]) | IC50 (furin [13]) [nM] | also measured
1 | CN(C)C(=O)COC(=O)Cc1ccc(OC(=O)c2ccc(NC(=N)N)cc2)cc1 [Camostat] | meaningfully reduce viral replication | – | – | – | – | – | – | – | – | – | – | – | – | – | – | – | Generation of S1′ (TMPRSS2 [2]): in large part; Generation of sACE2 (TMPRSS2 [2]): inhibited; Formation of S2a and S2b (TMPRSS2 [2]; increasing TMPRSS2): prevented
2 | CC(=O)NCC1CCN(Cc2cc(Oc3cnc(N4CCN(CCC(C)C(=O)O)CC4)nc3)nc(-c3cc(Cl)cc(Cl)c3)c2)CC1 (stereo not shown) [Compound 192, 4-(4-(5-((4-((4-(acetamidomethyl)piperidin-1-yl)methyl)-6-(3,5-dichloro-phenyl)pyridin-2-yl)oxy)pyrimidin-2-yl)piperazin-1-yl)-2-methylbutanoic acid] | meaningfully reduce viral replication | Inhibition was observed | somewhat | less inhibition | ~7 | ~7 | ~7 | blocked | > 60 | block viral entry | comparable | strongly reduce | significantly decreased | modestly reduce virus production | none of the compounds affected | ~7 | Inhibition of S1/S2 and S2′ processing ([6]; 300 nM): almost complete inhibition; Phenotype of S-expressing HeLa cells (syncytia, S and ACE2 localization) [7]: phenocopy those expressing μS1/S2; IC50 (furin [11]): 4 ± 0.7 nM
3 | CC(=O)NCC1CCN(Cc2cc(Oc3ccc(N4CCN(CCC(=O)O)CC4)nc3)nc(-c3cc(Cl)cc(Cl)c3)c2)CC1 [Compound 219, 3-(4-(5-((4-((4-(acetamidomethyl)piperidin-1-yl)methyl)-6-(3,5-dichlorophenyl)pyridin-2-yl)oxy)pyridin-2-yl)piperazin-1-yl)propanoicacid] | – | Inhibition was observed | somewhat | less inhibition | ~7 | ~7 | ~7 | blocked | > 60 | block viral entry | comparable | strongly reduce | significantly decreased | modestly reduce virus production | none of the compounds affected | ~7 | –
4 | CCCCCCCCCC(=O)N[C@@H](CCCNC(=N)N)C(=O)N[C@H](C(=O)N[C@@H](CCCCN)C(=O)N[C@@H](CCCNC(=N)N)C(=O)CCl)C(C)C [RVKR-cmk, Decanoyl-Arg-Val-Lys-Arg-CMK, reference compound] (HELM PEPTIDE1{[CCCCCCCCCC(=O)[*:2]].R.V.K.R.[ClC[*:1]]}$$$$V2.0) | – | – | – | – | ~9 | ~9 | ~9 | – | – | – | – | – | – | – | – | ~9 | IC50 (endogenous furin): 5 nM
